Assay results: patent EP4644383A1 (Jiangsu Yahong Meditech Co., Ltd., priority 2022, dated 2024)
Read-outs that look alike come from different tables or passages of the source.

How the values were obtained:
Format in all cases: biochemical
[1] = molecular target: T1, FGFR3 (Homo sapiens, UniProt P22607); assay: FGFR3 kinase activity inhibition assay (LanthaScreen TR-FRET); conditions: for Selectivity (X) FGFR1/FGFR3: ratio of IC50 FGFR1/FGFR3, selectivity towards FGFR3; for Selectivity (X) FGFR2/FGFR3: ratio of IC50 FGFR2/FGFR3, selectivity towards FGFR3; for Selectivity (X) FGFR4/FGFR3: ratio of IC50 FGFR4/FGFR3, selectivity towards FGFR3
T1 construct: FGFR3's cytoplasmic domain [436-806 (terminal) amino acids]; purchased Carna 08-135
How it was run: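 Read-out is TR-FRET, with the 520 nm/495 nm emission ratio normalised to DMSO (max) and enzyme-free (min) controls. Enzyme was the FGFR3 cytoplasmic domain, residues 436-806. EDTA (10 mM) stopped the reaction, followed by 60 min at 22 °C before reading.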

[2] = molecular target: T2, FGFR1 (Homo sapiens, UniProt P11362); assay: FGFR1 kinase activity inhibition assay (LanthaScreen TR-FRET)
T2 construct: cytoplasmic domain [398-822 (terminal) amino acids]; purchased Carna 08-133
How it was run: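 Emission ratio 520 nm/495 nm by TR-FRET after stopping reaction with 10 mM EDTA and 60 min incubation at 22°C. Inhibition normalized between no-enzyme (min) and DMSO (max) controls, then fitted to a four-parameter curve (Top, Bottom, HillSlope).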

[3] = molecular target: T3, FGFR2 (Homo sapiens, UniProt P21802); assay: FGFR2 kinase activity inhibition assay (LanthaScreen TR-FRET)
T3 construct: FGFR2's cytoplasmic domain [399-821 (terminal) amino acids]; purchased Carna 08-134
Experimental: (§1) FGFR1 kinase activity was measured using Invitrogen LanthaScreen™ assay technology, which utilized fluorescently-labeled peptides and terbium-labeled antibodies to directly measure an amount of the phosphorylated substrate through time-resolved fluorescence energy transfer (TR-FRET). • ① The test compounds were diluted: starting from a concentration of 1 µM, with a buffer solution in a three-fold serial dilution, the buffer solution being composed of 50 mM HEPES, 10 mM MgCl2, 0.01% TritonX-100, 0.01% BSA, 4 mM DTT (pH 7.5), and 1% DMSO; • ② 0.01 nM recombinant human GST fusion protein FGFR1's cytoplasmic domain [398-822 (terminal) amino acids] (Carna: 08-133) was formulated into a 2 × solution, mixed well with the test compounds, and incubated at 23°C for 10 minutes; • ③ 28 nM Fluorescein-Poly GT peptide substrate (Life Technologies: PV3611) and 28 µM ATP were formulated into a 2 × solution, mixed well with the test compounds and enzyme in ②, and incubated at 23°C for 30 minutes; • ④ 10 µL of 2nM Tb-PY20 antibody (Life Technologies: PV3552) and 10 mM EDTA were added to quench the kinase reaction, and incubated at 22°C for 60 minutes. • ⑤ The reaction was measured using a PerkinElmer EnVision multimode plate reader through TR-FRET dual wavelength detection. • 1. The RFU values were copied from the Envision program. • 2. The ratio of RFU 520nm/RFU 495nm was calculated. • 3. The value of the ratio was converted to a percentage inhibition value. % Inhibition = (max-data)/(max-min) × 100 [formula]
(§2) "Min" represents the ratio of the control without enzyme, "max" represents the ratio of the DMSO control, and "data" represents the ratio of the compounds in wells with different concentrations.
(§3) "Top" refers to the maximum response, "Bottom" refers to the minimum response, and "HillSlope" refers to the slope of the curve.
According to the same method as that in the FGFR1 kinase activity inhibition assay, the inhibitory activities against FGFR2, FGFR3 and FGFR4 were tested using FGFR2's cytoplasmic domain [399-821 (terminal) amino acids] (Carna: 08-134), FGFR3's cytoplasmic domain [436-806 (terminal) amino acids] (Carna: 08-135) and FGFR4's cytoplasmic domain [460-802 (terminal) amino acids] (Carna: 08-136), respectively. […]

[4] = molecular target: T4, FGFR4 (Homo sapiens, UniProt P22455); assay: FGFR4 kinase activity inhibition assay (LanthaScreen TR-FRET); conditions: FGFR4 kinase, TR-FRET; read-out: IC50 (nM) FGFR4
T4 construct: FGFR4's cytoplasmic domain [460-802 (terminal) amino acids]; purchased Carna 08-136
Experimental: as §1, §2, §3
According to the same method as that in the FGFR1 kinase activity inhibition assay, the inhibitory activities against FGFR2, FGFR3 and FGFR4 were tested using FGFR2's cytoplasmic domain [399-821 (terminal) amino acids] (Carna: 08-134), FGFR3's cytoplasmic domain [436-806 (terminal) amino acids] (Carna: 08-135) and FGFR4's cytoplasmic domain [460-802 (terminal) amino acids] (Carna: 08-136), respectively. Table 1 reports the kinase activity inhibition results and selectivity towards FGFR3 of each compound.

[5] = FGFR3 kinase, TR-FRET, read-out: IC50 (nM) FGFR3
[6] = FGFR1 kinase, TR-FRET, read-out: IC50 (nM) FGFR1
[7] = FGFR2 kinase, TR-FRET, read-out: IC50 (nM) FGFR2

T4 sequence (P22455 460-802): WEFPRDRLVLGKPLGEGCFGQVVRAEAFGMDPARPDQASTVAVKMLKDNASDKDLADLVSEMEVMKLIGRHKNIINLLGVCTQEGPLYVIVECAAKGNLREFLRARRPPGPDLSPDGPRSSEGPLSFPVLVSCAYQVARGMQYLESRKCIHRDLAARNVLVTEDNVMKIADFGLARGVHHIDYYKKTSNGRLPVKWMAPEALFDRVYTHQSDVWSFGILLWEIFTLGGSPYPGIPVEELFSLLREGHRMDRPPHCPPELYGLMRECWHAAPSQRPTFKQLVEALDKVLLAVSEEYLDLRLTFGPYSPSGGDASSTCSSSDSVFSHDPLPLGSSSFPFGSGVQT
T3 sequence (P21802 399-821): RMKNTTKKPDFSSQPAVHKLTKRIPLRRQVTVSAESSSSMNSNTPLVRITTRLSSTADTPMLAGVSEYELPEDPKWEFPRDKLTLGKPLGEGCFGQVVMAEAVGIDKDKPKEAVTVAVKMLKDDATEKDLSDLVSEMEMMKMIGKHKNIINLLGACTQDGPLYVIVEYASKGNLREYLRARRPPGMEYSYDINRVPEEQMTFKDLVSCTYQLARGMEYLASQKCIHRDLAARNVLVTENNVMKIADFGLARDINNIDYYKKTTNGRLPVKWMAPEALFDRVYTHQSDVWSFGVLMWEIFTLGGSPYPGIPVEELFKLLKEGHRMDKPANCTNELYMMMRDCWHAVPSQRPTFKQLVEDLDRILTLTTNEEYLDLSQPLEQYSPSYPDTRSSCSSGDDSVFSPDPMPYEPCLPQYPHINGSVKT
T2 sequence (P11362 398-822): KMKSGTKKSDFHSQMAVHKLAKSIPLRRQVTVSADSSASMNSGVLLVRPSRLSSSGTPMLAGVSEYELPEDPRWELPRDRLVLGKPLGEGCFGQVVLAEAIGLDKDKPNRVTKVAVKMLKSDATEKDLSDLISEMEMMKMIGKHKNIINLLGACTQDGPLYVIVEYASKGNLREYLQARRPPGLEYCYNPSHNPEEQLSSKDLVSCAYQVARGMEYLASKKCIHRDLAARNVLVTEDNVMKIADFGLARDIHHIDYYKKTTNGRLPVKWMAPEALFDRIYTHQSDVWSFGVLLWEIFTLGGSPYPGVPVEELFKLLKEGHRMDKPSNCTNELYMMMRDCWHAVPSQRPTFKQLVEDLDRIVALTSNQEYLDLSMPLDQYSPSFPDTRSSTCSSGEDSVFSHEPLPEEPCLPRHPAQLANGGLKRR
T1 sequence (P22607 436-806): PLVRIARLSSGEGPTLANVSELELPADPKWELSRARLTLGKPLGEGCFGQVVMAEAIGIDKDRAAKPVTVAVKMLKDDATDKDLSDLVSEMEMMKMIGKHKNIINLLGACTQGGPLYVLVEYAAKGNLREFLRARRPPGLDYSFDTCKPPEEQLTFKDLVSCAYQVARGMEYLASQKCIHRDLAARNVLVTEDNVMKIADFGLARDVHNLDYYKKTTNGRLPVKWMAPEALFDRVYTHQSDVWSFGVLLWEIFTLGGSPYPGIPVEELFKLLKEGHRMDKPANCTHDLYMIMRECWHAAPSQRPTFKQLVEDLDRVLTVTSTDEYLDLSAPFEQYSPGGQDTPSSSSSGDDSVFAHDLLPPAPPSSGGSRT

IC50 [1, 5]	Selectivity (X) FGFR1/FGFR3 [1]	Selectivity (X) FGFR2/FGFR3 [1]	IC50 [2, 6]	IC50 [3, 7]	Selectivity (X) FGFR4/FGFR3 [1]	IC50 [4]	Structure (SMILES)	IC50 [1]	IC50 [2]	IC50 [3]
> 100 nM	A (A represents 1 ≤ multiple X<20)	A (A represents 1 ≤ multiple X<20)	> 100 nM	> 100 nM	–	–	C[C@@H](Oc1cc(C(F)(F)F)c2[nH]nc(-c3cnn(C)c3)c2c1)c1c(Cl)cncc1Cl [Example 1, (R)-5-(1-(3,5-dichloropyridin-4-yl)ethoxy)-3-(1-methyl-1H-pyrazol-4-yl)-7-(trifluoromethyl)-1H-indazole]	–	–	–
1 to 10 nM	B (B represents 20 ≤ multiple X<50)	A (A represents 1 ≤ multiple X<20)	> 100 nM	10 to 100 nM	B (B represents 20 ≤ multiple X<50)	> 100 nM	Cc1cc(O[C@H](C)c2c(Cl)cncc2Cl)cc2c(-c3cnn(C)c3)n[nH]c12 [Example 2, (R)-5-(1-(3,5-dichloropyridin-4-yl)ethoxy)-7-methyl-3-(1-methyl-1H-pyrazol-4-yl)-1H-indazole]	–	–	–
1 to 10 nM	A (A represents 1 ≤ multiple X<20)	A (A represents 1 ≤ multiple X<20)	10 to 100 nM	1 to 10 nM	–	–	C[C@@H](Oc1ccc2[nH]nc(-c3cnn(CCO)c3)c2n1)c1c(Cl)cncc1Cl [Example 39, (R)-2-(4-(5-(1-(3,5-dichloropyridin-4-yl)ethoxy)-1H-pyrazolo[4,3-b]pyridin-3-yl)-1H-pyrazol-1-yl)ethan-1-ol]	–	–	–
10 to 100 nM	B (B represents 20 ≤ multiple X<50)	C (C represents 50 ≤ multiple X<100)	> 100 nM	> 100 nM	–	–	CNCCNC(=O)c1ccc2[nH]nc(-c3cnn(C)c3)c2c1 [Example 65, 3-(1-methyl-1H-pyrazol-4-yl)-N-(2-(methylamino)ethyl)-1H-indazole-5-carboxamide]	–	–	–
1 to 10 nM	B (B represents 20 ≤ multiple X<50)	A (A represents 1 ≤ multiple X<20)	> 100 nM	10 to 100 nM	–	–	CC(Oc1ccc2[nH]nc(-c3cnn(C)c3)c2c1)c1cc(C#N)cc2ncccc12 (centres unmarked) [Example 159, 5-(1-((3-(1-methyl-1H-pyrazol-4-yl)-1H-indazol-5-yl)oxy)ethyl)qu inoline-7-carbonitrile]	–	–	–
< 1 nM	A (A represents 1 ≤ multiple X<20)	–	10 to 100 nM	–	A (A represents 1 ≤ multiple X<20)	10 to 100 nM	CC(Oc1ccc2[nH]nc(-c3cnn(CCCS(C)(=O)=O)c3)c2c1)c1cccc2nccnc12 (centres unmarked) [Example 181, 5-(1-((3-(1-(3-(methylsulfonyl)propyl)-1H-pyrazol-4-yl)-1H-indazol-5-yl)oxy)ethyl)quinoxaline]	–	–	–
1 to 10 nM	A (A represents 1 ≤ multiple X<20)	–	10 to 100 nM	–	A (A represents 1 ≤ multiple X<20)	10 to 100 nM	CNC1CC(n2cc(-c3n[nH]c4ccc(OC(C)c5cccc6nccnc56)cc34)cn2)C1 (centres unmarked) [Example 182, N-methyl-3-(4-(5-(1-(quinoxalin-5-yl)ethoxy)-1H-indazol-3-yl)-1H-pyrazol-1-yl)c yclobutan-1-amine]	–	–	–
< 1 nM	B (B represents 20 ≤ multiple X<50)	–	10 to 100 nM	–	A (A represents 1 ≤ multiple X<20)	1 to 10 nM	CC(Oc1ccc2[nH]nc(-c3cnn(C)c3)c2c1)c1cccn2ncc(F)c12 (centres unmarked) [Example 184, 5-(1-(3-fluoropyrazolo[1,5-a]pyridin-4-yl)ethoxy)-3-(1-methyl-1H-pyrazol-4-yl)-1H-indazole]	–	–	–

Further lines, the molecule ahead of its results:

Structure (SMILES)	IC50 [1, 5]	Selectivity (X) FGFR1/FGFR3 [1]	Selectivity (X) FGFR2/FGFR3 [1]	IC50 [2, 6]	IC50 [3, 7]	Selectivity (X) FGFR4/FGFR3 [1]	IC50 [4]	IC50 [1]	IC50 [2]	IC50 [3]
C[C@@H](Oc1ccc2[nH]nc(-c3cnn(C4CCN(C(=O)N(C)C)CC4)c3)c2n1)c1c(Cl)cncc1Cl [Example 36, (R)-4-(4-(5-(1-(3,5-dichloropyridin-4-yl)ethoxy)-1H-pyrazolo[4,3-b]pyridin-3-yl)-1H-pyrazol-1-yl)-N,N-dimethylpiperidine-1-carboxamide]	–	A (A represents 1 ≤ multiple X<20)	A (A represents 1 ≤ multiple X<20)	–	–	–	–	1 to 10 nM	10 to 100 nM	10 to 100 nM
CC(C)N1CCC(n2cc(-c3n[nH]c4ccc(O[C@H](C)c5c(Cl)cncc5Cl)nc34)cn2)CC1 [Example 37, (R)-5-(1-(3,5-dichloropyridin-4-yl)ethoxy)-3-(1-(1-isopropylpiperidin-4-yl)-1H-pyrazol-4-yl)1H-pyrazolo[4,3-b]pyridine]	–	A (A represents 1 ≤ multiple X<20)	A (A represents 1 ≤ multiple X<20)	–	–	–	–	1 to 10 nM	1 to 10 nM	1 to 10 nM
C[C@@H](Oc1ccc2[nH]nc(-c3cnn(CC(F)F)c3)c2n1)c1c(Cl)cncc1Cl [Example 41, (R)-5-(1-(3,5-dichloropyridin-4-yl)ethoxy)-3-(1-(2,2-difluoroethyl)-1H-pyrazol-4-yl)-1H-pyrazolo[4,3-b]pyridine]	10 to 100 nM	A (A represents 1 ≤ multiple X<20)	A (A represents 1 ≤ multiple X<20)	10 to 100 nM	10 to 100 nM	–	–	–	–	–
C[C@@H](Oc1ccc2[nH]nc(-c3cnn(C4CC4)c3)c2n1)c1c(Cl)cncc1Cl [Example 48, (R)-3-(1-cyclopropyl-1H-pyrazol-4-yl)-5-(1-(3,5-dichloropyridin-4-yl)ethoxy)-1H-pyrazino[4,3-b]pyridine]	1 to 10 nM	A (A represents 1 ≤ multiple X<20)	A (A represents 1 ≤ multiple X<20)	10 to 100 nM	10 to 100 nM	–	–	–	–	–
CC(Oc1ccc2[nH]nc(-c3cnn(C4CCN(C#N)CC4)c3)c2c1)c1cccc2nccnc12 (centres unmarked) [Example 162, 4-(4-(5-(1-(quinoxalin-5-yl)ethoxy)-1H-indazol-3-yl)-1H-pyrazol-1-yl)piperidine-1-carbonitrile]	1 to 10 nM	A (A represents 1 ≤ multiple X<20)	A (A represents 1 ≤ multiple X<20)	10 to 100 nM	10 to 100 nM	–	–	–	–	–
CC(Oc1ccc2[nH]nc(-c3cnn(C4CCN(S(C)(=O)=O)CC4)c3)c2c1)c1cccc2nccnc12 (centres unmarked) [Example 163, 5-(1-((3-(1-(1-(methylsulfonyl)piperidin-4-yl)-1H-pyrazol-4-yl)-1-indazol-5-yl)oxy)ethyl)quinoxaline]	–	A (A represents 1 ≤ multiple X<20)	A (A represents 1 ≤ multiple X<20)	–	–	–	–	1 to 10 nM	10 to 100 nM	10 to 100 nM
CC(Oc1ccc2[nH]nc(-c3cnn(CCCS(C)(=N)=O)c3)c2c1)c1cc(F)cc2nccnc12 (centres unmarked) [Example 185]	< 1 nM	B (B represents 20 ≤ multiple X<50)	–	10 to 100 nM	–	B (B represents 20 ≤ multiple X<50)	10 to 100 nM	–	–	–
